Reference: article PMC6408443, “Structural determinants of lipid specificity within Ups/PRELI lipid transfer proteins” (Nature Communications, 2019)
Changes are numbered by the printed parent chain.

What was measured:
Test in all cases: liposome lipid transfer, NBD dequenching
Type in all cases: biochemical
Ups1–Mdm35 [1] = target: T1, Ups1–Mdm35 (Saccharomyces cerevisiae, UniProt Q05776, E108D); details: labelled compound; 50 nM complex, 12.5 µM donor and 50 µM acceptor liposomes, pH 7.4, 20 °C
T1 construct: N-terminally His-tagged Ups1 with Mdm35, E. coli S30 cell-free expression; heterodimer; with Mitochondrial distribution and morphology protein 35
T1 sequence (Q05776 1-175 E108D): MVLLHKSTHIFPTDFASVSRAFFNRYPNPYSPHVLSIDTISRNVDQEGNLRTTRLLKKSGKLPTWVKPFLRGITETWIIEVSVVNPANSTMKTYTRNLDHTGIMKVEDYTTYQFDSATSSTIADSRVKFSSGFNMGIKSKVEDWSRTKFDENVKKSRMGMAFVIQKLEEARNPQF
T1 sequence (O60200 1-86 partner): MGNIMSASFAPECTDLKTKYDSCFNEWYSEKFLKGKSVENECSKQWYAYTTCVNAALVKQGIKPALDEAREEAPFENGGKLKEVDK

Ups1–Mdm35 [2] = target: T2, Ups1–Mdm35 (Saccharomyces cerevisiae, UniProt Q05776, K58V); details: labelled compound; 50 nM complex, 12.5 µM donor and 50 µM acceptor liposomes, pH 7.4, 20 °C
T2 construct: N-terminally His-tagged Ups1 with Mdm35, E. coli S30 cell-free expression; heterodimer; with Mitochondrial distribution and morphology protein 35
T2 sequence (Q05776 1-175 K58V): T1 sequence (Q05776 1-175 E108D) with K58V, D108E
T2 sequence (O60200 1-86 partner): T1 sequence (O60200 1-86 partner)

Ups1–Mdm35 [3] = target: T3, Ups1–Mdm35 (Saccharomyces cerevisiae, UniProt Q05776); details: labelled compound, 12.5 µM donor and 50 µM acceptor liposomes, pH 7.4, 20 °C
T3 construct: N-terminally His-tagged Ups1 with Mdm35, E. coli S30 cell-free expression; heterodimer; with Mitochondrial distribution and morphology protein 35
T3 sequence (Q05776 1-175): T1 sequence (Q05776 1-175 E108D) with D108E
T3 sequence (O60200 1-86 partner): T1 sequence (O60200 1-86 partner)

PRELID1–TRIAP1 [4] = target: T4, PRELID1–TRIAP1 (Homo sapiens, UniProt Q9Y255, K58V); details: labelled compound; 120 nM complex, 12.5 µM donor and 50 µM acceptor liposomes, pH 7.4, 20 °C
T4 construct: N-His-tagged PRELID1 co-expressed with TRIAP1 from pETDuet-1 in E. coli; heterodimer
T4 sequence (Q9Y255 whole entry K58V): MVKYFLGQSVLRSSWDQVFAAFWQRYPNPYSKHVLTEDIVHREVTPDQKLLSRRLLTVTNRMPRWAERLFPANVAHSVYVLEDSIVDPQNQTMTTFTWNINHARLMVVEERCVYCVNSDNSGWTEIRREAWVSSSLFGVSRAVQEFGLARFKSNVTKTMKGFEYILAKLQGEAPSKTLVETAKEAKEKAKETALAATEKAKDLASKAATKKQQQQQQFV
T4 sequence (O43715 whole entry partner): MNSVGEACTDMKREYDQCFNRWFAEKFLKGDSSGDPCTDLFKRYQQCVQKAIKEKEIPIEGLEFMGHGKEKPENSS

PRELID1–TRIAP1 [5] = target: T5, PRELID1–TRIAP1 (Homo sapiens, UniProt Q9Y255, K58T); details: labelled compound; 120 nM complex, 12.5 µM donor and 50 µM acceptor liposomes, pH 7.4, 20 °C
T5 construct: N-His-tagged PRELID1 co-expressed with TRIAP1 from pETDuet-1 in E. coli; heterodimer
T5 sequence (Q9Y255 whole entry K58T): as the sequence (Q9Y255 whole entry K58V) above, with V58T counted along it
T5 sequence (O43715 whole entry partner): as the sequence (O43715 whole entry partner) above

PRELID1–TRIAP1 [6] = target: T6, PRELID1–TRIAP1 (Homo sapiens, UniProt Q9Y255); details: labelled compound, 12.5 µM donor and 50 µM acceptor liposomes, pH 7.4, 20 °C
T6 construct: N-His-tagged PRELID1 co-expressed with TRIAP1 from pETDuet-1 in E. coli; heterodimer
T6 sequence (Q9Y255 whole entry): as the sequence (Q9Y255 whole entry K58V) above, with V58K counted along it
T6 sequence (O43715 whole entry partner): as the sequence (O43715 whole entry partner) above

Ups2 loop-swap variant = target: T7, Ups2 loop-swap variant (Saccharomyces cerevisiae, UniProt P35200); details: labelled compound; 50 nM complex, 12.5 µM donor and 50 µM acceptor liposomes, pH 7.4, 25 °C
T7 construct: N-His Ups2Δ174 carrying the Ups1 Omega loop (residues 60-71), codon-optimised, with Mdm35, E. coli Rosetta-gami2; with Mitochondrial distribution and morphology protein 35
T7 sequence (P35200 1-174): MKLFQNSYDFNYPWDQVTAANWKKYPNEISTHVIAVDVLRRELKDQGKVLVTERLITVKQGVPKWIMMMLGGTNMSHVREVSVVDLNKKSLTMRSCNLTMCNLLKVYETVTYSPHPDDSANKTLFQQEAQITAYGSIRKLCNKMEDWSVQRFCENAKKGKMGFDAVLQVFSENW
T7 sequence (O60200 1-86 partner): T1 sequence (O60200 1-86 partner)

Ups2Δ174–Mdm35 = target: T8, Ups2Δ174–Mdm35 (Saccharomyces cerevisiae, UniProt P35200); details: labelled compound, 50 nM complex, 12.5 µM donor and 50 µM acceptor liposomes, pH 7.4, 25 °C
T8 construct: gene UPS2; N-His Ups2 truncated after W174, with Mdm35, E. coli Rosetta-gami2; with Mitochondrial distribution and morphology protein 35
T8 sequence (P35200 1-174): T7 sequence (P35200 1-174)
T8 sequence (O60200 1-86 partner): T1 sequence (O60200 1-86 partner)

SMILES | liposome lipid transfer, NBD dequenching (Ups1–Mdm35 [1]) | liposome lipid transfer, NBD dequenching (Ups1–Mdm35 [2]) | liposome lipid transfer, NBD dequenching (Ups1–Mdm35 [3]; 50 nM complex, inefficient substrate) | liposome lipid transfer, NBD dequenching (PRELID1–TRIAP1 [4]) | liposome lipid transfer, NBD dequenching (PRELID1–TRIAP1 [5]) | liposome lipid transfer, NBD dequenching (PRELID1–TRIAP1 [6]; 120 nM complex, low activity) | liposome lipid transfer, NBD dequenching (Ups2 loop-swap variant) | liposome lipid transfer, NBD dequenching (Ups2Δ174–Mdm35) | liposome lipid transfer, NBD dequenching (Ups1–Mdm35 [3]; 12.5 nM complex) | liposome lipid transfer, NBD dequenching (PRELID1–TRIAP1 [6]) | liposome lipid transfer, NBD dequenching (Ups2Δ174–Mdm35; inefficient substrate)
CCCCCCCC/C=C\CCCCCCCC(=O)OC[C@H](COP(=O)(O)OC[C@H](N)C(=O)O)OC(=O)CCCCCCCCCCCNc1ccc([N+](=O)[O-])c2nonc12 [NBD-PS] | The mutations K58V or E108D in Ups1 increased PS transport | The mutations K58V or E108D in Ups1 increased PS transport | Ups1–Mdm35 complexes transferred PS only inefficiently when compared to PA | substitution of K58 by valine or threonine substantially increased the ability of PRELID1 | substitution of K58 by valine or threonine substantially increased the ability of PRELID1 | PRELID1 showed a low PS transfer activity, similar to Ups1 | its ability to transfer PS was significantly reduced | PS transfer by Ups2 and loop-swap variant |  |  | 
CCCCCCCC/C=C\CCCCCCCC(=O)OC[C@H](COP(=O)(O)O)OC(=O)CCCCCCCCCCCNc1ccc([N+](=O)[O-])c2nonc12 [NBD-PA] |  |  |  |  |  |  | we observed efficient PA transport by the loop-swap variant of Ups2 |  | PA transfer of wildtype (WT) and mutant Ups1–Mdm35 complexes in vitro | While efficiently mediating the transfer of PA, PRELID1 showed a low PS transfer activity | Ups2–Mdm35 complexes transferred PA only inefficiently when compared to PS
